Reference: US20040044028A1, “Combinations of omega-3 fatty acids and cyclooxygenase-2 inhibitors for treatment or prevention of cardiovascular disease and treatment or prevention of cancer” (priority 2001, published 2004)
Marks after values point to notes of the source that are not given here.

What was measured:
mouse liver [1] = system: mouse liver; parameters: species or system mice; conditions: in vivo
Text: (§1) The metabolism of stearidonic acid to long chain n-3 polyunsaturated fatty acids (i.e., eicosapentaenoic acid (EPA), docosapentaenoic acid (DPA n-3) and docosahexaenoic acid (DHA)) in mouse liver is compared to that of α-linolenic acid, eicosapentaenoic acid and docosahexaenoic acid. The method used is a non-radioactive, dose response, metabolic end-point study.
Mice are fed a US 17 diet containing α-linolenic acid ethyl ester (ALA-EE), stearidonic acid ethyl ester (SDA-EE), eicosapentaenoic acid ethyl ester (EPA-EE), or docosahexaenoic acid ethyl ester (DHA-EE) in an amount equivalent to a human western diet containing 1, 3 or 10 g/day of the fatty acid (g/day human equivalent dose). In order to maintain a 17% fat (37% energy) content in the US17 diet, oleic acid (18:1 n-9), as an oleic acid cassette, is removed from the US17 diet in an amount equal to the amount of fatty acid ester that is added. Oleic acid is selected as the replacement fatty acid because literature reports indicate that oleic acid is neutral with respect to inflammation and cancer.
After one month on the respective US17-based diets, the mice are sacrificed and the fatty acid composition of each of their livers is analyzed by gas chromatography. The sum of the long chain n-3 PUFAs (i.e., EPA+DPA n-3+DHA) increases dose dependently in liver tissue in the following rank order: DHA-EE>EPA-EE>SDA-EE>ALA-EE. […] Each of the dietary n-3 PUFAs decreases the level of arachidonic acid in liver tissue dose dependently. This is significant because arachidonic acid metabolites (e.g., prostaglandins, leukotrienes, and HETEs (hydroxyeicosatetraenoic acid)) are correlated with cardiovascular disease, inflammation, and tumorigenesis. The group “basal” refers to mice that are fed the standard rodent chow diet just prior to switching to diets that are US17 based.

HepG2 cells = experiment: Metabolism of 14C fatty acids to long chain n-3 PUFAs, EPA and DHA in HepG2 cells; assay type: in vitro ADME; conditions: for metabolized to DHA / metabolized to EPA: 20 μM 14C fatty acid
Procedure: To a culture medium containing HepG2 cells is added 20 μM ^14C-ALA, ^14C-SDA or ^14C-EPA complexed to fatty acid free BSA. The amount of ^14C-ALA, ^14C-SDA or ^14C-EPA taken up by the HepG2 cells is measured at 6 hours, 24 hours and 48 hours after addition of the fatty acid. A scintillation counter is used to measure the total amount of radioactivity in the HepG2 cells and the amount remaining in the medium.
The metabolism of stearidonic acid to long chain n-3 PUFAs (eicosatetraenoic acid (20:4n-3), eicosapentaenoic acid (20:5n-3), docosapentaenoic acid (22:5n-3), and docosahexaenoic acid (22:6n-3)) in HepG2 cells is compared to that of α-linolenic acid. HepG2 cells are allowed to take up ^14C-ALA or ^14C-SDA as described in Example 2. The total amount of ^14C-EPA, ^14C-DPA and ^14C-DHA present in the HepG2 cells is measured at 6 hours, 24 hours and 48 hours after addition of the fatty acid by argentation thin layer chromatography (TLC). The amount of each fatty acid present as a band on the TLC plate is quantified by electronic autoradiography using an Instant Imager available from Packard (Meriden, Conn.).
HepG2 cells are allowed to take up ^14C-ALA, ^14C-SDA or ^14C-EPA as described in Example 2. The amount of ^14C-EPA and ^14C-DHA present in the HepG2 cells is measured at 6 hours, 24 hours and 48 hours after addition of the fatty acids by argentation thin layer chromatography (TLC) as described in Example 3. The amount of ^14C-EPA and ^14C-DHA present as bands on the TLC plate are quantified by electronic autoradiography using an Instant Imager as described in Example 3.

[2] = system: Min/+ mouse model of intestinal cancer; experiment: Min/+ mouse model of intestinal cancer, intestinal polyp formation; assay type: in vivo; conditions: for mice with large intestine tumors / mice in group (in parentheses): seven weeks on US17 diet with fatty acid ethyl ester 3% wt. or sulindac 320 ppm; for effect on polyp number: differences not significant relative to the US17 control
Procedure: The efficacy of select n-3 and n-6 polyunsaturated fatty acids is evaluated in the Min/+ mouse model of intestinal cancer. The following fatty acid ethyl esters are tested for their effect on intestinal polyp formation: 1) ALA-EE; 2) SDA-EE; 3) EPA-EE; 4) DHA-EE; 5) GLA-EE ([…] adid, 18:3 n-6); and 6) CLA-EE (conjugated linoleic acid; c9t11-18:2 (77%)+c9c11-18:2 (18%)+other isomers (5%)).
These fatty acid ethyl esters are added to the US17 diet to provide 10 g/day human equivalent dose (3% wt.). The NSAID, sulindac (320 ppm), serves as the positive control. In order to maintain a 17% fat (37 en %) content in the US17 diet, oleic acid (18:1 n-9) is removed from the US17 diet in an amount equal to the amount of the fatty acid ethyl ester that is added. Mice are received at approximately five weeks of age and are fed the test diets upon receipt. After seven weeks on the respective test diet, the mice are sacrificed and the intestinal polyps are counted and measured.

rat liver = experiment: Metabolism in rats, end point analysis using cold fatty acid ethyl esters; assay type: in vivo; conditions: dietary ethyl esters
Procedure: Oleic acid is selected as the replacement fatty acid because literature reports indicate that oleic acid is neutral with respect to inflammation and cancer. After one month on the respective US17-based diets, the mice are sacrificed and the fatty acid composition of each of their livers is analyzed by gas chromatography. […] DHA-EE>EPA-EE>SDA-EE>ALA-EE. […] This is significant because arachidonic acid metabolites (e.g., prostaglandins, leukotrienes, and HETEs (hydroxyeicosatetraenoic acid)) are correlated with cardiovascular disease, inflammation, and tumorigenesis. The group “basal” refers to mice that are fed the standard rodent chow diet just prior to switching to diets that are US17 based. […] The method used is as described in Example 6 except that rats are used in place of mice.

mouse liver [3] = experiment: Metabolism in mice, time course analysis using radiolabeled fatty acids; assay type: in vivo; conditions: 10 μCi intraperitoneal, at 24 hours
Text: as §1, with “n-3),” for “n-3)”, “time course study using ^14C-labeled fatty acids.” for “non-radioactive, dose response, metabolic end-point study.”
Mice are fed the US 17 diet for a period of one month in order to achieve steady-state fatty acid metabolism. After achieving steady-state fatty acid metabolism, the mice are administered an intraperitoneal injection containing 10 μCi of ^14C-ALA, ^14C-SDA, ^14C-EPA or ^14C-DHA. Mice are sacrificed 3 hours, 8 hours or 24 hours post-injection, and the total amount of ^14C-EPA, ^14C-DPA n-3 and ^14C-DHA is measured by argentation thin layer chromatography followed by direct electronic autoradiography, as described in Example 3. The order of metabolism of the PUFAs is DHA=EPA>SDA>ALA at 24 hours. SDA is metabolized to long chain n-3 PUFAs more efficiently than ALA in vivo.

[4] = system: small intestine tissue of Min/+ mouse; experiment: Arachidonic acid level in small intestine tissue of Min/+ mice; assay type: in vivo; conditions: phospholipid fraction, ethyl ester 3% wt. in US17 diet
Procedure: The efficacy of select n-3 and n-6 polyunsaturated fatty acids in reducing the level of arachidonic acid in small intestine tissue is evaluated using the Min/+ mouse model.
The following fatty acid ethyl esters are tested for their effect on intestinal fatty acid composition: 1) ALA-EE; 2) SDA-EE; 3) EPA-EE; 4) DHA-EE; 5) GLA-EE; and 6) CLA-EE. Fatty acid composition is determined in the small intestine because that is where the vast majority of polyps form.
These fatty acid esters are added to the US17 diet as discussed in Example 8. The arachidonic acid level in the phospholipid fraction of the small intestines of the mice is determined by gas chromatography.

[5] = Min/+ mice, seven weeks, ethyl ester 3% wt. or sulindac 320 ppm
[6] = Min/+ mice, seven weeks, ethyl ester 3% wt. or sulindac 320 ppm, mean ± SEM
[7] = large and small intestine, Min/+ mice, seven weeks, ethyl ester 3% wt. or sulindac 320 ppm, mean ± SEM
[8] = tumor number × tumor size, Min/+ mice, seven weeks, ethyl ester 3% wt. or sulindac 320 ppm, mean ± SEM

CC/C=C\C/C=C\C/C=C\CCCCCCCC(=O)OCC [ALA-EE, α-linolenic acid ethyl ester]
sum of the long chain n-3 PUFAs (EPA+DPA n-3+DHA) in liver tissue, rank order of dose dependent increase (mouse liver [1]): DHA-EE>EPA-EE>SDA-EE>ALA-EE

CC/C=C\C/C=C\C/C=C\CCCCCCCC(=O)O [Compound A-1, all cis 9,12,15-octadecatrienoic acid]
metabolized to DHA (HepG2 cells): 3% | metabolized to EPA (HepG2 cells): 24% | effectiveness in inhibiting polyp formation and development in the large intestine ([2]; Min/+ mice): marginally efficacious | Total large intestine tumors/group ([2]; Min/+ mice, seven weeks on US17 diet with fatty acid ethyl ester 3% wt. (10 g/day human equivalent dose) or sulindac 320 ppm): 8 | Total small intestine tumors/group [2, 5]: 364 | Avg. large intestine tumors/mouse [2, 6]: 0.8 ± 0.3^bcd | Avg. small intestine tumor size [2, 6]: 1.23 ± 0.04^ab mm | Avg. small intestine tumors/mouse [2, 6]: 36.4 ± 6.3^ab | Avg. large intestine tumor size ([2]; Min/+ mice, seven weeks, ethyl ester 3% wt. or sulindac 320 ppm, mean ± SEM, only animals bearing colonic tumors): 2.75 ± 0.46^ab | Total Avg. overall tumor size [2, 7]: 1.21 ± 0.03^bc mm | Total Avg. tumors/mouse [2, 7]: 37.2 ± 6.6^ab | mice with large intestine tumors / mice in group (in parentheses) [2]: 5/10 | Total Avg. overall tumor load ([2]; tumor number × tumor size, large and small intestine, Min/+ mice, seven weeks, ethyl ester 3% wt. or sulindac 320 ppm, mean ± SEM): 45.97 ± 8.88^ab mm | Avg. large intestine tumor load [2, 8]: 2.15 ± 0.82^bcd mm | Avg. small intestine tumor load [2, 8]: 45.67 ± 8.66^ab mm

CC/C=C\C/C=C\C/C=C\C/C=C\CCCCC(=O)O [Compound A-2, all cis 6,9,12,15-octadecatetraenoic acid]
decrease in the level of arachidonic acid, comparison (rat liver): greater decrease in the level of arachidonic acid than does either ALA or EPA | metabolism to long chain n-3 polyunsaturated fatty acids, comparison (rat liver): better than ALA | metabolism to long chain n-3 PUFAs, comparison (HepG2 cells): faster than that of ALA | metabolized to DHA (HepG2 cells): 6% | metabolized to EPA (HepG2 cells): 55% | Total small intestine tumors/group [2, 5]: 18 | Total Avg. tumors/mouse [2, 7]: 18.7 ± 1.9^c | mice with large intestine tumors / mice in group (in parentheses) [2]: 2/10 | order of metabolism of the PUFAs to long chain n-3 PUFAs (14C-EPA, 14C-DPA n-3, 14C-DHA) (mouse liver [3]): DHA=EPA>SDA>ALA | decreasing the level of arachidonic acid in the small intestine, comparison [4]: more effective than ALA, EPA and DHA

CC/C=C\C/C=C\C/C=C\C/C=C\C/C=C\CCCC(=O)O [Compound A-4, all cis (5,8,11,14,17-eicosapentaenoic acid]
effectiveness in inhibiting polyp formation and development in the large intestine ([2]; Min/+ mice): marginally efficacious | Total small intestine tumors/group [2, 5]: 17 | Total Avg. tumors/mouse [2, 7]: 18.5 ± 2.2^c | mice with large intestine tumors / mice in group (in parentheses) [2]: 6/10 | Avg. small intestine tumor load [2, 8]: 18.34 ± 2.04^cd mm

CC/C=C\C/C=C\C/C=C\C/C=C\C/C=C\C/C=C\CCC(=O)O [Compound A-6, all cis 4,7,10,13,16,19-docosahexanoic acid]
mice with large intestine tumors / mice in group (in parentheses) [2]: 9/10 | order of metabolism of the PUFAs to long chain n-3 PUFAs (14C-EPA, 14C-DPA n-3, 14C-DHA) (mouse liver [3]): DHA=EPA>SDA>ALA

CC/C=C\C/C=C\C/C=C\C/C=C\C/C=C\C/C=C\CCC(=O)OCC [DHA-EE, docosahexaenoic acid ethyl ester]
sum of the long chain n-3 PUFAs (EPA+DPA n-3+DHA) in liver tissue, rank order of dose dependent increase (mouse liver [1]): DHA-EE>EPA-EE>SDA-EE>ALA-EE

CC/C=C\C/C=C\C/C=C\C/C=C\C/C=C\CCCC(=O)OCC [EPA-EE, eicosapentaenoic acid ethyl ester]
sum of the long chain n-3 PUFAs (EPA+DPA n-3+DHA) in liver tissue, rank order of dose dependent increase (mouse liver [1]): DHA-EE>EPA-EE>SDA-EE>ALA-EE

CCCCC/C=C\C/C=C\C/C=C\CCCCC(=O)O [GLA, γ-linolenic acid, reference compound]
Total small intestine tumors/group [2, 5]: 42 | effect on polyp number ([2]; Min/+ mice): appears to increase polyp number | mice with large intestine tumors / mice in group (in parentheses) [2]: 6/9

CC/C=C\C/C=C\C/C=C\C/C=C\CCCCC(=O)OCC [SDA-EE, stearidonic acid ethyl ester]
sum of the long chain n-3 PUFAs (EPA+DPA n-3+DHA) in liver tissue, rank order of dose dependent increase (mouse liver [1]): DHA-EE>EPA-EE>SDA-EE>ALA-EE

CC1=C(CC(=O)O)c2cc(F)ccc2/C1=C\c1ccc([S+](C)[O-])cc1 (centres unmarked) [Sulindac, sulindac, reference compound]
Avg. large intestine tumors/mouse [2, 6]: 0.2 ± 0.2^ad | mice with large intestine tumors / mice in group (in parentheses) [2]: 2/9

conjugated linoleic acid [CLA, reference compound]
Total small intestine tumors/group [2, 5]: 40 | effect on polyp number ([2]; Min/+ mice): appears to increase polyp number | mice with large intestine tumors / mice in group (in parentheses) [2]: 5/9
